Test [1] concerns the target T1, KRas G12C (Homo sapiens, UniProt P01116, G12C).
T1 construct: NCI-11358 cells (ATCC CRL-5807) express KRas G12C; host or cells: NCI-H358
Nature of the test: Cellular inhibition of KRas G12C measured by Phospho-ERK in NCI-11358 cells. The class given is cell-based. Conditions: NCI-11358 cells (ATCC CRL-5807), 3 hours; read-out: Inhibition (IC50, pERK (Thr202/Tyr204) signal normalized with GAPDH). How it is done:
The cellular inhibition of KRAs G12C by exemplary compounds of the present invention was determined by measuring the amount of a downstream marker of KRas activity, phosphorylated ERK (“Phospho-ERK”).
NCI-11358 cells (ATCC CRL-5807) express KRas G12C and were grown in RPMI medium supplemented with 10% fetal bovine serum, penicillin/streptomycin and 10 mM HEPES. Cells were plated in poly-D-Lysine coated 96-well plates at a concentration of 50,000 cells/well and allowed to attach for 8-12 hours. Diluted compounds were then added at a final concentration of 0.5% DMSO. After 3 hours, the medium was removed, 150 μL of 4% formaldehyde was added and the plates were incubated for 20 minutes. The plates were washed with PBS, and permeabilized using 150 μL of ice cold 100% methanol for 10 minutes. Non-specific antibody binding to the plates was blocked using 100 μL Licor Blocking Buffer (Li-Cor Biotechnology, Lincoln NE) for 1 hour at room temperature. Positive control samples and samples lacking cells were parallel processed with test samples as standards.
The amount Phospho-ERK was determined using an antibody specific for the phosphorylated form of ERK and compared to the amount of GAPDH. Primary antibodies used for detection were added as follows: Phospho-ERK (Cell Signaling cs9101) diluted 1:500 and GAPDH (Millipore MAB374) diluted 1:5000 in Licor block+0.05% Tween 20. The plates were incubated for 2 hours at room temperature. The plates were washed with PBS+0.05% Tween 20.
Secondary antibodies used to visualize primary antibodies were added as follows: Anti-rabbit-680 diluted 1:1000 and Anti-mouse-800 diluted 1:1000 in Licor Block+0.05% Tween 20 and incubated for 1 hour at room temperature. The plates were washed with PBS+0.05% Tween 20. A 100 μL aliquot of PBS was added to each well and the plates were read on a LICOR AERIUS plate reader.
The pERK (Thr202/Tyr204) signal was normalized with the GAPDH signal and percent of DMSO control values were calculated. IC50 values were generated using a 4 parameter fit of the dose response curve. Key: “A”: ≤1 μM, “B”>1 μM and N.D.=not determined.

Test [2] has as its target T2, KRas G12C (Homo sapiens, UniProt P01116, C118S/C51S/C80L/G12C).
T2 construct: GDP-loaded K-Ras (1-169) G12C, C51S, C80L, C118S
Nature of the test: KRas G12C Modification Assay (LCMS detection of covalent adduct). The class given is binding. Conditions: 5 μM concentration for 3 hours. How it is done: This Example illustrates that exemplary compounds of the present invention covalently bind to KRas G12C using a LCMS assay to detect a covalent adduct of the exemplary compound and KRAS G12C.
The protein concentration of GDP-loaded K-Ras (1-169) G12C, C51S, C80L, C118S and GTP-loaded K-Ras (1-169) G12C, C51S, C80L, C118S, Q61H was adjusted to 2 μM in K-Ras Assay Buffer (25 mM HEPES, 150 mM NaCl, 5 mM MgCl2, and 10 mM Octyl β-glucopyranoside at pH 7.5). A 10 μL aliquot of each protein solution was transferred to a 384 well microtiter plate. Initial compound stocks were generated at fifty times their desired final assay concentration in DMSO.
Exemplary compounds of formula (I) were diluted 25-fold into K-Ras Assay Buffer to a final of two times their final concentration. A 10 μL aliquot of each diluted compound solution was added to each of the protein solutions in the microtiter plate to initiate reaction. Typical final compound concentrations were 3.0, 5.0 and 25.0 μM. At each time point, the reactions were quenched with 20 μL of a 25 mM acetic acid solution. Usual assay endpoints were 15, 180 and 1440 minutes. Once all reactions were quenched, the plates were heat sealed and the samples were injected into a LC/MS system for data acquisition.
Data collection took place on an Agilent 6520 Q-TOF Accurate Mass Spectrometer. Samples were injected in their liquid phase onto a C-3 reverse phase column to remove assay buffer and prepare the samples for mass spectrometer. The proteins were eluted from the column using an acetonitrile gradient and fed directly into the mass analyzer. Initial raw data analysis took place in Agilent MassHunter software immediately post data acquisition.
Raw data analysis of the intact protein was exclusively a deconvolution of the multiple charge states of each protein in solution using a maximum entropy deconvolution provided in Mass Hunter. To minimize complexity, only the data over limited mass ranges were considered for analysis, with a minimum of one Dalton mass step intervals. The heights of all masses identified during raw data analysis were exported to be further analyzed in Spotfire® data analysis software.
Final data analysis was a multistep process in the Spotfire® data analysis software package. Briefly, each protein mass was calculated as a percent of the total signal of that sample, that percentage was normalized to the percentage of signal of the protein in the absence of reactive compounds. Those normalized signals were reported as normalized percent of control (POC). […] Key: N.D. is not determined.

Experimental findings from patent publication US11932633B2, “KRas G12C inhibitors” (Mirati Therapeutics, Inc., priority 2018, dated 2024) are described below.

With `C=CC(=O)N1CC(CN2C(=O)COc3cc(-c4cc(O)cc5ccccc45)c(C#N)cc32)C1` [Example 32, 4-((1-acryloylazetidin-3-yl)methyl)-7-(3-hydroxynaphthalen-1-yl)-3-oxo-3,4-dihydro-2H-benzo[b][1,4]oxazine-6-carbonitrile], the IC50 on KRas G12C [1] was above 1000 nM. For the same molecule, the “POC (normalized percent of control, covalent modification of KRas G12C)” value at KRas G12C [2] is 81% of control.

As to `C=CC(=O)N1CC(CN2C(=O)[C@H](CCN(C)C)Oc3cc(-c4cccc5ccccc45)c(Cl)cc32)C1` [Example 33, (S)-4-((1-acryloylazetidin-3-yl)methyl)-6-chloro-2-(2-(dimethylamino)ethyl)-7-(naphthalen-1-yl)-2H-benzo[b][1,4]oxazin-3(4H)-one], the IC50 on KRas G12C [1] was above 1000 nM. At KRas G12C [2], the “POC (normalized percent of control, covalent modification of KRas G12C)” value was 32% of control.

As to `C=CC(=O)N1CC(CN2C(=O)[C@H](CCN3CCOCC3)Oc3cc(-c4cc(O)cc5ccccc45)c(Cl)cc32)C1` [Example 34, (S)-4-((1-acryloylazetidin-3-yl)methyl)-6-chloro-7-(3-hydroxynaphthalen-1-yl)-2-(2-morpholinoethyl)-2H-benzo[b][1,4]oxazin-3(4H)-one], at KRas G12C [1], the IC50 is at most 1000 nM. At KRas G12C [2], the “POC (normalized percent of control, covalent modification of KRas G12C)” value is 93% of control.

With `C=CC(=O)N1CC(CN2C(=O)COc3cc(-c4ccccc4C(F)(F)F)c(Cl)cc32)C1` [Example 37, 4-((1-acryloylazetidin-3-yl)methyl)-6-chloro-7-(2-(trifluoromethyl)phenyl)-2H-benzo[b][1,4]oxazin-3(4H)-one], the IC50 on KRas G12C [1] was above 1000 nM. In addition, at KRas G12C [2], the “POC (normalized percent of control, covalent modification of KRas G12C)” value is reported as 66% of control.

Regarding `C=CC(=O)N1CC(CN2C(=O)COc3cc(-c4[nH]nc(C)c4C)c(Cl)cc32)C1` [Example 38, 6-chloro-7-(3,4-dimethyl-1H-pyrazol-5-yl)-4-[(1-prop-2-enoylazetidin-3-yl)methyl]-1,4-benzoxazin-3-one], the IC50 on KRas G12C [1] is above 1000 nM. For the same molecule, the “POC (normalized percent of control, covalent modification of KRas G12C)” value on KRas G12C [2] is on record as 72% of control.
